# Measurements: patent publication US20030054549A1, “Stem cell reinforcing material” (priority 2000, published 2003)
# Legend:
# [1] = tested on: bone marrow hematopoietic cells and reproductive stem cells
# Method: 1) Healthy male rats of equal body weight in each group were reared as the sample (male ICR) (six weeks old). They were reared with 10 rats each in comparative groups 3, 4 and 5 as well as experimental group 4 and 5 rats in experimental group 3.
# The rats of comparative groups 4 and 5 as well as experimental groups 3 and 4 were systemically exposed one time only to a dose of 8 Gy after three weeks of rearing.
# Bone marrow transplant was performed on the rats of each group 24 hours after radiation exposure. In this case, the femur of a donor rat of the same species was cut out. A small piece was cut off from both ends of the femur with a clean bench. Once 1 ml RPMI medium 1640 medium containing 10% antibiotic-antimycotic was injected with a syringe from one end through the medullary cavity, it was pushed into a test tube. The marrow cell count was adjusted to 10^5/ml and 0.5 ml was injected from a caudal vein. The donor rat had been systemically exposed to 2 Gy radiation and reared for three weeks on feed of 1 wt % of the koji mold soybean fermentation and cultivation product added to ordinary food.
# All of the rats were sacrificed, the spleen was excised, spleen weight and the number of spleen colonies formed were determined, and the […] were likewise excised and testicle weight was determined after determining body weight on day 7 after bone marrow transplant.
# Body weight of all rats was determined before bone marrow transplant and on day 7 after transplant.
# [2] = tested on: bone marrow hematopoietic stem cells; experiment: Example 4: mouse spleen colony method with radiation exposure and bone marrow transplant, female rats, mixture vs genistein vs 17β estradiole; type: in vivo; details: female ICR, 8 Gy; for spleen weight after radiation exposure per 10 g body weight: day 10 after bone marrow transplant
# Method: They were reared with five rats in each group.
# With the exception of comparative groups 8 and 9, bone marrow transplant was performed 24 hours after radiation exposure on the rats of comparative groups 10 and 11 as well as those of experimental groups 7, 8, and 9.
# Body weight of all rats was determined when rearing was started, after one week, and after two weeks and before bone marrow transplant and on day 5, day 7 and day 10 after transplant.
structure (smiles),measurement,setting,value
CN(C)CCOc1ccc(/C(=C(/CCCl)c2ccccc2)c2ccccc2)cc1 [toremifen],spleen weight after radiation exposure per 10 g body weight,"[1]; male ICR, 30 mg/kg body weight in feed, 8 Gy, day 7 after bone marrow transplant, compared to unexposed comparative group 3",somewhat lower value than the others
same,testicle weight after radiation exposure per 10 g body weight,"[1]; male ICR, 30 mg/kg body weight in feed, 8 Gy, day 7 after transplant, compared to unexposed comparative group 3",likewise lower
same,toxicity (spleen weight and body weight lower),"[1]; rat, in vivo, 30 mg/kg",considerably stronger than isoflavone aglycone
O=c1c(-c2ccc(O)cc2)coc2cc(O)cc(O)c12 [genistein],spleen weight after radiation exposure per 10 g body weight,"[2]; 30 mg/kg body weight in feed, vs comparative groups 9 and 10",significantly higher
same,number of spleen colonies that formed following transplant after radiation exposure,"[2]; 30 mg/kg body weight in feed, day 10 after transplant, vs comparative groups 10 and 11",significantly higher
same,body weight,"[2]; 30 mg/kg body weight in feed, judging from day 7 after radiation exposure",tendency toward an increase
C[C@]12CC[C@@H]3c4ccc(O)cc4CC[C@H]3[C@@H]1CC[C@@H]2O [17β estradiole],spleen weight after radiation exposure per 10 g body weight,[2]; 10 μg/kg body weight in feed,"lower values than experimental groups 7, 8 and 9"
same,spleen colony formation,"[2]; 10 μg/kg body weight in feed, day 10 after transplant",no augmentation whatsoever
